These results are taken from publication PMC4689619 (Organic & biomolecular chemistry, 2016).

In data set [1] the target is oncogenic mutant K-Ras (mGFP-K-Ras G12V) (Homo sapiens, UniProt P01116, G12V). Format: cell-based, canine. The following applies: MDCK cells stably expressing mGFP-KRasG12V and mCherry-CAAX, 48 h; for IC50: read-out: IC50 (concentration needed for 50% PM mislocalisation).
In another data set the test system is SW620 cells. Nature of the data set: resazurin cell viability assay, SW620. In kind it is cell-based, human. A general note: Alamar Blue is a resazurin reagent that responds to reducing activity.
The test system of the next data set is SW620 Ad300 cells. Nature of the data set: cells. Format: cell-based, human.
The next data set addresses P-glycoprotein (P-gp) (Homo sapiens, UniProt P08183). Nature of the data set: calcein AM flow cytometry assay in P-gp over-expressing SW620 Ad300 cells. The note with it: 20 μM.
The mark [2] stands for this setting: read-out: SW620 IC50, colon cancer cell line SW620, resazurin.
[3] abbreviates: read-out: SW620 Ad300 IC50, P-gp over-expressing SW620 Ad300, resazurin.

Like-named read-outs stand apart in the source and are kept apart here.

Chain of P-glycoprotein (P-gp) (P08183 whole entry): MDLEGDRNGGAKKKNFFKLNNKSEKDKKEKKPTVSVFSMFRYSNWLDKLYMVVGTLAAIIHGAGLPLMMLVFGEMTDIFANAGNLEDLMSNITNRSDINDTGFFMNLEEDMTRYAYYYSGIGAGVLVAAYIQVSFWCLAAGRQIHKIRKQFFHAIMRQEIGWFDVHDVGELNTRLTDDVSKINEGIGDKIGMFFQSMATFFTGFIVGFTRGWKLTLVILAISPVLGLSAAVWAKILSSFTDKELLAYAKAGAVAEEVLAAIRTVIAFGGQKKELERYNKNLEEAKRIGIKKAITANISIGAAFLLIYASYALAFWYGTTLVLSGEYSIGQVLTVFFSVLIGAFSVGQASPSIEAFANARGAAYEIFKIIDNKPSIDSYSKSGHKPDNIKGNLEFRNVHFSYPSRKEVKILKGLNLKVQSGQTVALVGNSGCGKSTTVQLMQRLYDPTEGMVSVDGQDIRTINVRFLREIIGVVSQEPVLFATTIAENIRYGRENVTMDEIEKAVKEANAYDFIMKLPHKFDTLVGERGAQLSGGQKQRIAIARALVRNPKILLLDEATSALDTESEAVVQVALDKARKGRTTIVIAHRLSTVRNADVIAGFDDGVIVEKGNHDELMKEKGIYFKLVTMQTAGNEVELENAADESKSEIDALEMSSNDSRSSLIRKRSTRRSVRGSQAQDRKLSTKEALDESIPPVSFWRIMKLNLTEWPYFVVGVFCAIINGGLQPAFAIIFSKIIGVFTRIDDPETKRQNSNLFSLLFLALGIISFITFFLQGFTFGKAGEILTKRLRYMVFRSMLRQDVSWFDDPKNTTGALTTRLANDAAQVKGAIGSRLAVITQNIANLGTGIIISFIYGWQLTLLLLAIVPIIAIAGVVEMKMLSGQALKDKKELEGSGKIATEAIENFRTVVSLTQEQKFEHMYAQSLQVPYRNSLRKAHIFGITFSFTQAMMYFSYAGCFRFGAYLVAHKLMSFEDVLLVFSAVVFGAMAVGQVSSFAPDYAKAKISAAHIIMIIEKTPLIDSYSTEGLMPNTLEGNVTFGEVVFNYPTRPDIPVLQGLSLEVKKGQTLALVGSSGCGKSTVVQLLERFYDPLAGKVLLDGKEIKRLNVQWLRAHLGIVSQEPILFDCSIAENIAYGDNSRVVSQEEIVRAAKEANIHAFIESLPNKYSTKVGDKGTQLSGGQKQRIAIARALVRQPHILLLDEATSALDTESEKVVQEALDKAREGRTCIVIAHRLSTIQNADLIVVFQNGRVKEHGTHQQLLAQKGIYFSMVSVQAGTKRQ

Turning to `CC[C@H]1/C=C/C=C/C[C@@H](C)[C@H](O)[C@@](C)(O)C(=O)[C@@H](C)[C@H](O)[C@@H](C)C(=O)[C@@H](C)[C@H](O)[C@@H](C)/C=C/C(=O)O[C@@H]2[C@H](C)[C@H](C[C@H]1O)O[C@]1(CC[C@H](C)[C@H](C[C@@H](C)O)O1)[C@H]2C` [compound 6, 21-hydroxy-oligomycin A], the “Emax (highest Manders coefficient, maximum extent of K-Ras PM mislocalisation)” value (shortened to “Emax”) in data set [1] amounted to 0.76 ± 0.04. Also, the IC50 in data set [1] turned out to be 0.00482 ± 0.0007 µM; in the data set on SW620 cells (setting [2]), 14.4 ± 0.6 µM; with SW620 Ad300 cells (setting [3]), 11.8 ± 3.1 µM. The “FR (fold resistance, ratio IC50 SW620Ad300 / IC50 SW620)” value in the data set with SW620 Ad300 cells is listed as 0.82.

As for oligomycin A [compound 1], in data set [1], the “Emax” value worked out at 0.75 ± 0.02. Besides, the figures for the IC50 in the data set on SW620 cells (setting [2]) and with SW620 Ad300 cells (setting [3]) were 14.6 ± 2.5 µM and 4 ± 1.1 µM, respectively. Also, in the data set on SW620 Ad300 cells, the “FR (fold resistance, ratio IC50 SW620Ad300 / IC50 SW620)” value amounted to 0.27.

For the compound `CC[C@H]1/C=C/C=C/C[C@@H](CO)[C@H](O)[C@@](C)(O)C(=O)[C@@H](C)[C@H](O)[C@@H](C)C(=O)[C@@H](C)[C@H](O)[C@@H](C)/C=C/C(=O)O[C@@H]2[C@H](C)[C@H](CC1)O[C@@]1(O[C@@H](C[C@@H](C)O)[C@@H](C)CC1=O)[C@H]2C` [compound 8, 40-hydroxy-oligomycin B], in data set [1], the “Emax” value was found to be 0.73 ± 0.05. Besides, the figures for the IC50 (in data set [1]; with SW620 cells (setting [2]); in the data set on SW620 Ad300 cells (setting [3])) were 0.00591 ± 0.00162 µM, 13.6 ± 0.4 µM and 16.4 ± 1.5 µM, respectively. For the same compound, the “FR (fold resistance, ratio IC50 SW620Ad300 / IC50 SW620)” value in the data set with SW620 Ad300 cells was determined as 1.2.

On to `CC[C@H]1/C=C/C=C/C[C@@H](C)[C@H](O)[C@H](C)C(=O)[C@@H](C)[C@H](O)[C@@H](C)C(=O)[C@@H](C)[C@H](O)[C@@H](C)/C=C/C(=O)O[C@@H]2[C@H](C)[C@H](C[C@H]1O)O[C@]1(CC[C@H](C)[C@H](C[C@@H](C)O)O1)[C@H]2C` [compound 7, 21-hydroxy-oligomycin C], for which the “Emax” value in data set [1] came to 0.68 ± 0.01. Besides, the IC50 in data set [1] stood at 0.0141 ± 0.00024 µM; in the data set with SW620 cells (setting [2]), 5.7 ± 0.9 µM; with SW620 Ad300 cells (setting [3]), 3.1 ± 0.2 µM. In the data set on SW620 Ad300 cells, the “FR (fold resistance, ratio IC50 SW620Ad300 / IC50 SW620)” value came to 0.54.

With `CC[C@H]1/C=C/C=C/C[C@@H](C)[C@H](O)[C@@](C)(O)C(=O)[C@@H](C)[C@H](O)[C@@H](C)C(=O)[C@@H](C)[C@H](O)[C@@H](C)/C=C/C(=O)O[C@@H]2[C@H](C)[C@H](CC1)O[C@@]1(O[C@@H](C[C@@H](C)O)[C@@H](C)CC1=O)[C@H]2C` [compound 2, oligomycin B], the “Emax” value in data set [1] amounted to 0.67 ± 0.02. Besides, the IC50 came to 0.00351 ± 0.00016 µM in data set [1], 17 ± 0.6 µM in the data set with SW620 cells (setting [2]) and 12.9 ± 1.3 µM in the data set on SW620 Ad300 cells (setting [3]). Further, the “FR (fold resistance, ratio IC50 SW620Ad300 / IC50 SW620)” value in the data set with SW620 Ad300 cells is recorded as 0.76.

Consider `CC[C@@H]1C=CC=CC[C@H](C)[C@@H](O)[C@@H](C)C(=O)[C@H](C)[C@@H](O)[C@H](C)C(=O)[C@H](C)[C@@H](O)[C@H](C)C=CC(=O)O[C@H]2[C@@H](C)[C@@H](CC1)O[C@@]1(CC[C@@H](C)[C@@H](C[C@H](C)O)O1)[C@@H]2C` [compound 3, oligomycin C], for which the “Emax” value in data set [1] came out at 0.72 ± 0.03. Further, the IC50 with SW620 cells (Homo sapiens, SW-620, read-out: SW620 IC50) worked out at 19.8 ± 1.2 µM; in the data set with SW620 Ad300 cells (Homo sapiens, SW620/AD300, read-out: SW620 Ad300 IC50), 22.5 ± 3.8 µM. Moreover, the “FR (fold resistance, ratio IC50 SW620Ad300 / IC50 SW620)” value with SW620 Ad300 cells is 1.1.

In the case of `CC[C@H]1/C=C/C=C/C[C@@H](C)[C@H](O)[C@@](C)(O)C(=O)[C@@H](C)[C@H](O)[C@@H](C)C(=O)[C@@H](C)[C@H](O)[C@@H](C)/C=C/C(=O)O[C@H]2C[C@@]3(CC[C@H](C)[C@H](C[C@@H](C)O)O3)O[C@@H](CC1)[C@H]2C` [compound 4, oligomycin D], the “Emax” value in data set [1] came out at 0.72 ± 0.01. Moreover, the IC50 in data set [1] turned out to be 0.00349 ± 8e-05 µM; in the data set with SW620 cells (setting [2]), 36 ± 2.3 µM; in the data set on SW620 Ad300 cells (setting [3]), 12.9 ± 1 µM. Moreover, in the data set on SW620 Ad300 cells, the “FR (fold resistance, ratio IC50 SW620Ad300 / IC50 SW620)” value stood at 0.35.

With `COc1cccc2c1C(=O)c1c(O)c3c(c(O)c1C2=O)C[C@@](O)(C(=O)CO)C[C@@H]3O[C@H]1C[C@H](N)[C@H](O)[C@H](C)O1` [doxorubicin, reference compound], in the data set on SW620 Ad300 cells, the “FR (fold resistance, ratio IC50 SW620Ad300 / IC50 SW620)” value stood at 22. Moreover, the “FR (fold resistance) with co-administration of verapamil” value in the data set on SW620 Ad300 cells (co-administration of P-gp inhibitor verapamil) is 2.4.

Consider `CC[C@H]1/C=C/C=C/C[C@@H](C)[C@H](O)[C@@](C)(O)C(=O)[C@@H](C)[C@H](O)[C@@H](C)C(=O)[C@@H](C)[C@H](O)[C@@H](C)/C=C/C(=O)O[C@@H]2[C@H](C)[C@H](CC1)O[C@@]1(O[C@@H](C[C@@H](C)O)[C@@H](C)CC1=O)[C@]2(C)O` [compound 5, oligomycin E], for which the “Emax” value in data set [1] amounted to 0.73 ± 0.06. Besides, the IC50 in data set [1] came out at 0.0049 ± 0.00064 µM; in the data set with SW620 cells (setting [2]), 7.1 ± 0.4 µM; in the data set on SW620 Ad300 cells (setting [3]) it was 4 ± 0.8 µM. The “FR (fold resistance, ratio IC50 SW620Ad300 / IC50 SW620)” value in the data set on SW620 Ad300 cells came to 0.56. Further, the “FAR (fluorescence arbitrary ratio), calcein fluorescence intensity vs PBS” value at P-glycoprotein (P-gp) is given as 48.2.
